Measurements published in patent US9598396B2, “Tetrahydrophenanthridinones and tetrahydrocyclopentaquinolinones as PARP and tubulin polymerization inhibitors” (Janssen Pharmaceutica NV, priority 2008, dated 2017).

Columns and labels:
[1] = test system: Human colon carcinoma HCT116 cells; experiment: Detection of antiproliferative activity (Alamar Blue assay); format: cell-based; details: HCT-116, 96 h, 4-day incubation, read-out: Cellular assay HCT116 pIC50 (converted)
Method: Example C.4 Detection of Antiproliferative Activity
Human colon carcinoma HCT116 cells obtained from the ATCC were cultured in McCoy's 5A medium supplemented with 2 mM L-Glutamine, 50 μg/ml gentamicin and 10% heat inactivated fetal calf serum.
Reagents used in the Alamar Blue Assay
Resazurin was purchased from Aldrich (Prod. No. 199303). Potassium ferrocyanide, potassium ferricyanide, KH2PO4 and K2HPO4 were purchased from Sigma (Prod. Nos. P9387, P8131, P5655 and P8281, respectively).
Potassium Phosphate Buffer 0.1 M (PPB) was made as follows: 2.72 gram KH2PO4 and 13.86 gram K2HPO4 were dissolved in 500 ml milli-Q H2O, the pH was adjusted to pH 7.4 and the volume was brought to 1 liter with milli-Q H2O; the buffer was filter sterilised and stored at room temperature. Resazurin stock solution (PPB-A) was prepared fresh by dissolving 45 mg resazurin in 15 ml PBS. 30 mM potassium ferricyanide (PPB-B) was prepared by dissolving 0.987 gram potassium ferricyanide in 100 ml PPB. 30 mM potassium ferrocyanide (PPB-C) was prepared by dissolving 1.266 gram potassium ferrocyanide in 100 ml PPB.
Mixture of PPB-A, PPB-B and PPB-C was prepared by mixing equal volumes of the respective solutions. Resazurin work solution (herein termed “Alamar Blue” solution) was prepared by diluting said mixture 20× (vol/vol) in PPB and filter sterilising; the Alamar Blue solution could be kept at 4° C. for a maximum of 2 weeks.
Procedure of the Alamar Blue Assay
For experiments in 384 wells plates the cells were seeded at a density of 4.5×10^3 cells/ml in Falcon 384-well culture plates (Life Technologies, Merelbeke, Belgium), black with clear bottom, in 45 μl culture medium. Cells were allowed to adhere to plastic for 24 hours. The tested compound was pre-diluted (1/50 in culture medium) and 5 μl pre-diluted compound was added to the wells. Following 4-day incubation, 10 μl of the Alamar Blue solution was added to each well and the cells were further incubated for 4 hours (HCT116) or 24 hours (PC-3) at 37° C. The fluorescence intensity was measured for each well on a Fluorescence plate reader (Fluorskan, Labsystems, 540 nm excitation and 590 nm emission)
The antiproliferative activity was calculated as percentage of remaining viable cells in treated versus control (untreated cells) conditions. Within an experiment, the result for each experimental condition is the mean of 3 replicate wells. When appropriate, the experiments were repeated to establish full concentration-response curves. […] Herein the effects of tested compounds are expressed as pIC50 (the negative log value of the IC50 value) (see Table 3).

[2] = test system: human prostate cancer PC3 cells; experiment: Eb1 Comet (microtubule disruption) assay; format: cell-based; details: 1 hour treatment, LAC = concentration where Eb1 foci absent in at least 50% of treated cells
From the text: Example C.6 Eb1 Comet (Microtubule Disruption) Assay
The Eb1 Comet assay relies on the detection of the Eb1 protein at the plus end of polymerizing microtubules (Mimori-Kiyosue, 2000) using indirect immunofluorescence. Disruption of microtubule dynamics through de-polymerization or stabilization results in a de-localization of Eb1 from the growing microtubule ends and this is visualized by the disappearance of Eb1 containing cytoplasmic foci.
Briefly, human prostate cancer PC3 cells obtained from the American Type Culture Collection were grown in 96-well plates (Greiner, cat. no. 655090) in HAM's F12 medium as recommended by the provider (ATCC). The cells were treated for 1 hour at 37° C. with compounds dissolved in DMSO (0.6% final DMSO concentration). The culture medium was then removed by aspiration and the cells were fixed by adding cold methanol (−20 C). After a 15 minutes incubation at −20° C., the cells were washed twice with DPBS (Gibco) containing 0.5% Triton X-100. Mouse Eb1 antibody (BD Transduction Laboratories, cat. no. 610534) was added to the cells (1/250 dilution in DPBS containing 1% BSA) and incubated overnight at room temperature. The antibody was subsequently removed and the cells washed twice with DPBS, 0.5% Triton X-100. Secondary goat anti-mouse antibody conjugated to Alexa 488 fluorescent dye (Molecular Probes) was added at a 1/500 dilution in DPBS, 1% BSA and incubated for 1 hour at 37° C. The cells were washed twice with DPBS, 0.5% Triton X-100 and then DPBS containing 0.5% Triton X-100 and 1/5000 Hoechst 33342 (Molecular Probes) was added. Microscopy based Eb1 foci visualization was carried out using an IN Cell Analyser 1000 (Amersham Biosciences) using a 20× objective. Compound dependent microtubule disruption was visually determined by the disappearance in Eb1 foci. The lowest active concentration (LAC) was determined as the concentration where Eb1 foci were absent in at least 50% of the treated cells. Herein the effects of tested compounds are expressed as pLAC (the negative log value of the LAC value) (see Table 3).

TANK-2 enzyme = TANK-2 enzyme (Homo sapiens (Human), UniProt Q9H2K2); experiment: In vitro Scintillation Proximity Assay (SPA) for TANK-2 inhibitory activity; format: biochemical; details: auto-poly(ADP-ribosyl)ation, [3H]-NAD+, Ni flash plates (96 or 384 well)
Method: C.2.In Vitro Scintillation Proximity Assay (SPA) for TANK-2 Inhibitory Activity
Compounds of the present invention were tested in an in vitro assay based on SPA technology with Ni Flash plates (96 or 384 well).
In principle, the assay relies upon SPA technology for the detection of auto-poly(ADP-ribosyl)ation of TANK-2 protein using [^3H]-nicotinamide adenine dinucleotide ([^3H]-NAD^+) as ADP-ribosyl donor.
A stock solution of 100 nM [^3H]-NAD^+/NAD (0.1 mCi/ml, supplier: Perkin Elmer) and 25 μM NAD (Sigma) was made in assay buffer (60 mM Tris/HCl, pH 7.4; 0.9 mM DTT; 6 mM MgCl2). The TANK-2 enzyme was produced as described in EP1238063. 60 μl of assay buffer, together with 1 μl of compound in DMSO, 20 μl of [^3H]-NAD^+/NAD and 20 μl of TANK-2 enzyme (final concentration 8 μg/ml) was added per well into a 96-well Ni-coated flash plate (Perkin Elmer). After incubation of the mixture for 120 minutes at room temperature, the reaction was terminated by adding 60 μl of stopsolution (42.6 mg NAD in 6 ml H2O). The plates were covered with a plate sealer and placed in a TopCountNXT™ (Packard) for scintillation counting. Values were expressed as counts per minute (cpm). For each experiment, controls (containing TANK-2 enzyme and DMSO without compound), a blank incubation (containing DMSO but no TANK-2 enzyme or compound) and samples (containing TANK-2 enzyme and compound dissolved in DMSO) were run in parallel. All compounds tested were dissolved and eventually further diluted in DMSO. In first instance, compounds were tested at a concentration of 10^−5M. […] In each test, the blank value was subtracted from both the control and the sample values. The control sample represented maximal TANK-2 enzyme activity. For each sample, the amount of cpm was expressed as a percentage of the mean cpm value of the controls. […] Herein the effects of test compounds are expressed as pIC50 (the negative log value of the IC50-value). As reference compounds, 3-aminobenzamide and 4-amino-1,8-naphtalimide were included to validate the SPA assay. Herein the assay was described using 96-well plates. In the assay using 384-well plates the same final concentrations were used and volumes were adapted.

tubulin = experiment: Tubulin polymerization assay; format: biochemical; details: inhibition of polymerization at 20 μM and 5 μM
Method: Example C.5 Polymerization Assay
The tubulin polymerization assay is an adaptation of an assay originally described by Bonne, D. et al. (J. Biol. Chem., 1985, 260:2819-25). The assay kit was purchased from Cytoskeleton, Inc. (catalogue number BK011) and the assay was performed as described by the supplier with the following modifications. The assay was run in a 384-well black Proxiplate (Perkin Elmer) and volumes were adapted accordingly. The reactions were carried out in a final volume of 10 μl. Compounds were added to 25 μl of the reaction mix in 96-well PP plates (Corning) on ice and 10 μl of this mixture was dispensed into duplicates of the 384-well Proxiplates pre-warmed to 37° C. in a Fluoroskan Ascent plate reader (Thermo Scientific). Fluorescence measurements were taken every minute for one hour. The maximum slope of each well was determined (linear regression through 4 consecutive points) and polymerization was calculated as a percentage of polymerization observed in the absence of compound.

Chain of TANK-2 enzyme (Q9H2K2 whole entry): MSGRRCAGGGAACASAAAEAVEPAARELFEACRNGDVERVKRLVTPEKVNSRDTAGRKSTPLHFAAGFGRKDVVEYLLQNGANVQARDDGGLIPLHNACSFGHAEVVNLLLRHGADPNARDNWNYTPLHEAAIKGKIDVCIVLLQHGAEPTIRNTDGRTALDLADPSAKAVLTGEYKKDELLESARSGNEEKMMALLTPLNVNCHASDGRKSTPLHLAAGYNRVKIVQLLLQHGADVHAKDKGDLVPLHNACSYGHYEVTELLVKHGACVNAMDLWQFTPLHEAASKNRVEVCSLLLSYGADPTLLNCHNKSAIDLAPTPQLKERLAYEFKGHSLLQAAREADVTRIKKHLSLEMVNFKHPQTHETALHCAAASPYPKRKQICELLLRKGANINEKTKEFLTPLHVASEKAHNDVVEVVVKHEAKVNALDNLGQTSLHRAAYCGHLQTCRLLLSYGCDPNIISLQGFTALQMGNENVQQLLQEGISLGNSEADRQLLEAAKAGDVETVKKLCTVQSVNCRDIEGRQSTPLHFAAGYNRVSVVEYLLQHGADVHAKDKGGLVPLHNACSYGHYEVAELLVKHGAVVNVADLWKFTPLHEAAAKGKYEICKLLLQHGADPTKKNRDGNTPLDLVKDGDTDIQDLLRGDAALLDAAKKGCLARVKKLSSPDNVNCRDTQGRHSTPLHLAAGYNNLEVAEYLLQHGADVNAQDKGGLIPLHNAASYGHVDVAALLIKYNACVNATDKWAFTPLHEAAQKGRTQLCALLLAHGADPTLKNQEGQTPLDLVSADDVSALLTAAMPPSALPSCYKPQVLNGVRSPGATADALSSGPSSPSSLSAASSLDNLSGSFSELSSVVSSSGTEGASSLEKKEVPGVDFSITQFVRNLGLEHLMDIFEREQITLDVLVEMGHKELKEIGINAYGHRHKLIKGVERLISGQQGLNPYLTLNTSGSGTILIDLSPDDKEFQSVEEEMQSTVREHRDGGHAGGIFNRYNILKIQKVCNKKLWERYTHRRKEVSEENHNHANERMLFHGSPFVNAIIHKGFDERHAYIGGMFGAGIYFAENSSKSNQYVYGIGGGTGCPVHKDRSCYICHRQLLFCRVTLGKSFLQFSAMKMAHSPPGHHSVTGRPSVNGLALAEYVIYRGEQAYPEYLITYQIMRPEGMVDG

IC50 [1]: 57.5 nM
in vitro SPA assay TANK-2 pIC50 (TANK-2 enzyme): 7.72
Compound: COc1cc(OC)nc(CC(C)(C#N)c2ccc3c4c(c(=O)[nH]c3c2)CCCC4)n1 (stereo not shown) [Co. No. 6]
Cellular assay Eb1 pLAC [2]: 8
Assay Tubulin Polymerization score (tubulin): 3 (a compound showing more than 50% inhibition at 5 μM is reported as score 3)
